The supplement of paper PMC5412046
Counter-ions that a name gives are not always drawn.

Legend:
SB.mhdgc-1 = experiment: AC50 for growth inhibition (viability) (log10 M); higher = less potent; conditions: SB.mhdgc-1 (hereditary c.1380delA CDH1 gastric cancer)
Summary of the method: (§1)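 Gastric cancer cells derived from patients with hereditary or sporadic disease were seeded at 500 cells in 5 μL medium per 1536 well. A pintool delivered 23 nL of compound in DMSO, as 11 threefold dilutions from a final 46 μM. After 48 h, CellTiter-Glo was added for 30 min at room temperature and luminescence was read on a ViewLux. The log half-maximal activity concentration was taken from a four-parameter fit of viability normalised to DMSO, using only high-quality curve classes.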

SB.msgc-1 = experiment: as above; conditions: SB.msgc-1 (sporadic gastric cancer)
Summary of the method: as §1

## CCC(C1CCC(C)C(O1)C(C)C(O)C(C)C(=O)C(CC)C2OC\3(O[C@]4(CC[C@@](C)(O4)C5CC[C@@](O)(CC)C(C)O5)C(O)\C=C3)C(C)CC2C)C([O-])=O (stereo not given in full) [Salinomycin]
SB.mhdgc-1
  AC50 for growth inhibition (log10 M): -6.28
SB.msgc-1
  AC50 for growth inhibition (log10 M): -6.58

## CC(C)=CCC/C(C)=C/CC/C(C)=C/CSc1ccccc1C(=O)O [Salirasib]
SB.mhdgc-1
  AC50 for growth inhibition (log10 M): -6.43
SB.msgc-1
  AC50 for growth inhibition (log10 M): -5.58

## CN1CCN(CCOc2cc(OC3CCOCC3)c3c(Nc4c(Cl)ccc5c4OCO5)ncnc3c2)CC1 [Saracatinib]
SB.mhdgc-1
  AC50 for growth inhibition (log10 M): -4.63
SB.msgc-1
  AC50 for growth inhibition (log10 M): -5.88

## CC1(C)CCC[C@]2(C)[C@H]3CC(=O)O[C@]3(C)CC[C@@H]12 [Sclareolide]
SB.mhdgc-1
  AC50 for growth inhibition (log10 M): -5.03
SB.msgc-1
  AC50 for growth inhibition (log10 M): -4.78

## CN1[C@@H]2CC(O)C[C@H]1[C@@H]1O[C@@H]12 (stereo not given in full) [Scopine]
SB.mhdgc-1
  AC50 for growth inhibition (log10 M): -4.78
SB.msgc-1
  AC50 for growth inhibition (log10 M): -4.83

## COc1cc(C[C@@H](CO)[C@H](CO)Cc2ccc(O)c(OC)c2)ccc1O [Secoisolariciresinol]
SB.mhdgc-1
  AC50 for growth inhibition (log10 M): -6.38
SB.msgc-1
  AC50 for growth inhibition (log10 M): -6.63

## Cn1cnc2c(F)c(Nc3ccc(Br)cc3Cl)c(C(=O)NOCCO)cc21 [Selumetinib]
SB.mhdgc-1
  AC50 for growth inhibition (log10 M): -5.38
SB.msgc-1
  AC50 for growth inhibition (log10 M): -5.18

## C=C1/C(=C/C=C2\CCCC3(C)[C@@H]([C@H](C)/C=C/C=C/C(O)(CC)CC)CC[C@@H]23)C[C@@H](O)C[C@@H]1O (stereo not given in full) [Seocalcitol]
SB.mhdgc-1
  AC50 for growth inhibition (log10 M): -4.83
SB.msgc-1
  AC50 for growth inhibition (log10 M): -4.78

## COCCn1c2c([n+](Cc3cnccn3)c1C)C(=O)c1ccccc1C2=O [Sepantronium bromide]
SB.mhdgc-1
  AC50 for growth inhibition (log10 M): -7.33
SB.msgc-1
  AC50 for growth inhibition (log10 M): -7.73

## c1ccc2c(CCNc3ccc(Nc4ccncc4)cc3)c[nH]c2c1 [Serdemetan]
SB.mhdgc-1
  AC50 for growth inhibition (log10 M): -5.63
SB.msgc-1
  AC50 for growth inhibition (log10 M): -4.73

## CC(C)=CC[C@@H](O)C/1=C/C(=O)C2=C(O)C=CC(=C2C1=O)O [Shikonin]
SB.mhdgc-1
  AC50 for growth inhibition (log10 M): -6.13
SB.msgc-1
  AC50 for growth inhibition (log10 M): -5.83

## COC/1=C/[C@@H]2[C@@H]3CC4=C(C(=C(OC)C=C4)O)[C@]2(CCN3C)CC1=O [Sinomenine]
SB.mhdgc-1
  AC50 for growth inhibition (log10 M): -6.33
SB.msgc-1
  AC50 for growth inhibition (log10 M): -6.03

## CNC(=O)c1cc(Oc2ccc(NC(=O)Nc3ccc(Cl)c(C(F)(F)F)c3)cc2)ccn1 [Sorafenib]
SB.mhdgc-1
  AC50 for growth inhibition (log10 M): -5.08
SB.msgc-1
  AC50 for growth inhibition (log10 M): -4.98

## CC(C)NCC(O)c1ccc(NS(C)(=O)=O)cc1 (stereo not given) [Sotalol]
SB.mhdgc-1
  AC50 for growth inhibition (log10 M): -4.83
SB.msgc-1
  AC50 for growth inhibition (log10 M): -5.03

## CN[C@@H]1[C@H](O)[C@H](NC)[C@H]2O[C@@]3(O)C(=O)C[C@@H](C)O[C@H]3O[C@@H]2[C@H]1O [Spectinomycin hydrochloride]
SB.mhdgc-1
  AC50 for growth inhibition (log10 M): -5.93
SB.msgc-1
  AC50 for growth inhibition (log10 M): -6.08

## C[C@]12Cc3cn[nH]c3C[C@@H]1CC[C@@H]1[C@@H]2CC[C@@]2(C)[C@H]1CC[C@]2(C)O [Stanozolol]
SB.mhdgc-1
  AC50 for growth inhibition (log10 M): -5.98
SB.msgc-1
  AC50 for growth inhibition (log10 M): -5.63

## CN1CCN(CCCN2c3ccccc3Sc3ccc(C(F)(F)F)cc32)CC1 [Stelazine  trifluoperzine]
SB.mhdgc-1
  AC50 for growth inhibition (log10 M): -5.63
SB.msgc-1
  AC50 for growth inhibition (log10 M): -5.08

## CC(C)n1cnc2c(NCCc3ccc(O)cc3)nc(-c3csc4ccccc34)nc21 [StemRegenin 1]
SB.mhdgc-1
  AC50 for growth inhibition (log10 M): -5.78
SB.msgc-1
  AC50 for growth inhibition (log10 M): -4.88

## CC1=C(CC(=O)O)c2cc(F)ccc2/C1=C\c1ccc([S+](C)[O-])cc1 (stereo not given) [Sulindac]
SB.mhdgc-1
  AC50 for growth inhibition (log10 M): -5.93
SB.msgc-1
  AC50 for growth inhibition (log10 M): -5.53

## CCN(CC)CCNC(=O)c1c(C)[nH]c(/C=C2\C(=O)Nc3ccc(F)cc32)c1C [Sunitinib malate]
SB.mhdgc-1
  AC50 for growth inhibition (log10 M): -5.32
SB.msgc-1
  AC50 for growth inhibition (log10 M): -4.42

## CC(C)(O)CC(=O)NCCn1ccc2ncnc(Nc3ccc(Oc4cccc(C(F)(F)F)c4)c(Cl)c3)c21 [TAK-285]
SB.mhdgc-1
  AC50 for growth inhibition (log10 M): -5.43
SB.msgc-1
  AC50 for growth inhibition (log10 M): -6.88

## N#Cc1c(NC(=O)c2cccc3ccccc23)sc2c1CCCC2 [TCS JNK 5a]
SB.mhdgc-1
  AC50 for growth inhibition (log10 M): -5.88
SB.msgc-1
  AC50 for growth inhibition (log10 M): -5.98

## Oc1ccc(-c2ccc(-c3cc(Nc4cccc(CNC5CC5)c4)[nH]n3)cc2)c(O)c1 [TCS-2312]
SB.mhdgc-1
  AC50 for growth inhibition (log10 M): -6.28
SB.msgc-1
  AC50 for growth inhibition (log10 M): -5.03

## Cc1cnc(Nc2ccc(CN3CCOCC3)cc2)nc1Nc1cccc([S+](=O)([O-])NC(C)(C)C)c1 [TG-46]
SB.mhdgc-1
  AC50 for growth inhibition (log10 M): -4.68
SB.msgc-1
  AC50 for growth inhibition (log10 M): -4.83

## NC(=O)Nc1sc(-c2ccc(F)cc2)cc1C(N)=O [TPCA-1]
SB.mhdgc-1
  AC50 for growth inhibition (log10 M): -5.93
SB.msgc-1
  AC50 for growth inhibition (log10 M): -5.48

## Cc1ccc([S+](=O)([O-])N[C@@H](Cc2ccccc2)C(=O)CCl)cc1 [TPCK]
SB.mhdgc-1
  AC50 for growth inhibition (log10 M): -4.78
SB.msgc-1
  AC50 for growth inhibition (log10 M): -4.73

## CC(C)c1ccccc1Cc1cc(C(=O)Nc2ccc([S+](=O)([O-])c3ccccc3C(C)(C)C)cc2)c(O)c(O)c1O [TW-37]
SB.mhdgc-1
  AC50 for growth inhibition (log10 M): -4.83
SB.msgc-1
  AC50 for growth inhibition (log10 M): -5.13

## CC/C(=C(\c1ccccc1)c1ccc(OCCN(C)C)cc1)c1ccccc1 [Tamoxifen]
SB.mhdgc-1
  AC50 for growth inhibition (log10 M): -4.68
SB.msgc-1
  AC50 for growth inhibition (log10 M): -4.73

## C=CCNC1=C2C[C@@H](C)C[C@H](OC)[C@H](O)[C@@H](C)/C=C(\C)[C@H](OC(N)=O)[C@@H](OC)/C=C\C=C(/C)C(=O)NC(=CC1=O)C2=O [Tanespimycin]
SB.mhdgc-1
  AC50 for growth inhibition (log10 M): -7.28
SB.msgc-1
  AC50 for growth inhibition (log10 M): -7.53

## Cc1coc2c1C(=O)C(=O)c1c-2ccc2c1CCCC2(C)C [Tanshinone IIA]
SB.mhdgc-1
  AC50 for growth inhibition (log10 M): -5.58
SB.msgc-1
  AC50 for growth inhibition (log10 M): -4.68

## COc1cc2c(cc1OC)CN(CCc1ccc(NC(=O)c3cc(OC)c(OC)cc3NC(=O)c3cnc4ccccc4c3)cc1)CC2 [Tariquidar]
SB.mhdgc-1
  AC50 for growth inhibition (log10 M): -5.03
SB.msgc-1
  AC50 for growth inhibition (log10 M): -5.08

## CCOC(=O)[C@@H](N)Cc1ccc(-c2cc(O[C@H](c3ccc(Cl)cc3-n3ccc(C)n3)C(F)(F)F)nc(N)n2)cc1.O=C(O)CNC(=O)c1ccccc1 [Telotristat etiprate]
SB.mhdgc-1
  AC50 for growth inhibition (log10 M): -4.78
SB.msgc-1
  AC50 for growth inhibition (log10 M): -5.03

## CCOC(=O)[C@H](CCc1ccccc1)N[C@H]1CS[C@H](c2cccs2)CN(CC(=O)O)C1=O.Cl [Temocapril hydrochloride]
SB.mhdgc-1
  AC50 for growth inhibition (log10 M): -6.28
SB.msgc-1
  AC50 for growth inhibition (log10 M): -5.88

## COc1cc([C@@H]2c3cc4c(cc3[C@@H](O[C@@H]3O[C@@H]5CO[C@@H](c6cccs6)O[C@H]5[C@H](O)[C@H]3O)[C@H]3COC(=O)[C@H]23)OCO4)cc(OC)c1O [Teniposide]
SB.mhdgc-1
  AC50 for growth inhibition (log10 M): -7.13
SB.msgc-1
  AC50 for growth inhibition (log10 M): -6.03

## CC(C)OC(=O)OCOP(=O)(CO[C@H](C)Cn1cnc2c(N)ncnc21)OCOC(=O)OC(C)C.O=C(O)C=CC(=O)O [Tenofovir Disoproxil Fumarate]
SB.mhdgc-1
  AC50 for growth inhibition (log10 M): -4.68
SB.msgc-1
  AC50 for growth inhibition (log10 M): -4.78

## COc1ccc(C[C@@H](C)[C@@H](C)Cc2ccc(OC)c(OC)c2)cc1OC [Terameprocol]
SB.mhdgc-1
  AC50 for growth inhibition (log10 M): -5.18
SB.msgc-1
  AC50 for growth inhibition (log10 M): -5.43

## C/C(O)=C(\C#N)C(=O)Nc1ccc(C(F)(F)F)cc1 [Teriflunomide]
SB.mhdgc-1
  AC50 for growth inhibition (log10 M): -4.63
SB.msgc-1
  AC50 for growth inhibition (log10 M): -4.78

## CCN(CC)CCOc1ccc(Cc2ccccc2)cc1 [Tesmilifene hydrochloride]
SB.mhdgc-1
  AC50 for growth inhibition (log10 M): -4.48
SB.msgc-1
  AC50 for growth inhibition (log10 M): -5.18

## C/C=C(/C)C(=O)O[C@H]1C(C)=C2[C@H]([C@@H]1OC(=O)CCCCCCC)[C@@](C)(OC(C)=O)C[C@H](OC(=O)CCC)[C@@]1(O)[C@H]2OC(=O)[C@@]1(C)O [Thapsigargin]
SB.mhdgc-1
  AC50 for growth inhibition (log10 M): -6.98
SB.msgc-1
  AC50 for growth inhibition (log10 M): -7.43

## Cn1cnc2c1c(=O)[nH]c(=O)n2C [Theobromine]
SB.mhdgc-1
  AC50 for growth inhibition (log10 M): -4.63
SB.msgc-1
  AC50 for growth inhibition (log10 M): -4.78

## O=C(NCc1ccccc1)c1csc(Nc2ccncn2)n1 [Thiazovivin]
SB.mhdgc-1
  AC50 for growth inhibition (log10 M): -4.78
SB.msgc-1
  AC50 for growth inhibition (log10 M): -4.78

## S=P(N1CC1)(N1CC1)N1CC1 [ThioTEPA]
SB.mhdgc-1
  AC50 for growth inhibition (log10 M): -5.48
SB.msgc-1
  AC50 for growth inhibition (log10 M): -5.23

## NC/1=N/C2=C([NH]C=N2)C(=S)N1 [Tioguanine]
SB.mhdgc-1
  AC50 for growth inhibition (log10 M): -5.03
SB.msgc-1
  AC50 for growth inhibition (log10 M): -5.58

## C[N]1C=NC=C1[C@@](N)(C2=CC=C(Cl)C=C2)C3=CC=C4N(C)C(=O)\C=C(\C5=CC=CC(=C5)Cl)C4=C3 [Tipifarnib]
SB.mhdgc-1
  AC50 for growth inhibition (log10 M): -4.83
SB.msgc-1
  AC50 for growth inhibition (log10 M): -4.83

## O=C1NC(=O)[C@@H](c2cn3c4c(cccc24)CCC3)[C@@H]1c1c[nH]c2ccccc12 [Tivantinib]
SB.mhdgc-1
  AC50 for growth inhibition (log10 M): -6.48
SB.msgc-1
  AC50 for growth inhibition (log10 M): -6.23

## COc1cc2nccc(Oc3ccc(NC(=O)Nc4cc(C)on4)c(Cl)c3)c2cc1OC [Tivozanib]
SB.mhdgc-1
  AC50 for growth inhibition (log10 M): -5.28
SB.msgc-1
  AC50 for growth inhibition (log10 M): -5.58

## CCOC(=O)N1c2ccc(C(F)(F)F)cc2[C@@H](N(Cc2cc(C(F)(F)F)cc(C(F)(F)F)c2)C(=O)OC)C[C@H]1CC [Torcetrapib]
SB.mhdgc-1
  AC50 for growth inhibition (log10 M): -4.73
SB.msgc-1
  AC50 for growth inhibition (log10 M): -5.18

## CN(C)CCOc1ccc(/C(=C(/CCCl)c2ccccc2)c2ccccc2)cc1 [Toremifene]
SB.mhdgc-1
  AC50 for growth inhibition (log10 M): -4.63
SB.msgc-1
  AC50 for growth inhibition (log10 M): -4.63

## CCC(=O)N1CCN(CC1)C2=C(C=C(C=C2)N3C(=O)\C=C/C4=C3C5=CC(=CC=C5N=C4)C6=CN=C7C=CC=CC7=C6)C(F)(F)F [Torin-1]
SB.mhdgc-1
  AC50 for growth inhibition (log10 M): -6.63
SB.msgc-1
  AC50 for growth inhibition (log10 M): -5.13

## NC1=NC=C(C=C1)C2=CC=C3N=CC\4=C(N(C(=O)\C=C4)C5=CC(=CC=C5)C(F)(F)F)C3=C2 [Torin-2]
SB.mhdgc-1
  AC50 for growth inhibition (log10 M): -6.48
SB.msgc-1
  AC50 for growth inhibition (log10 M): -6.78
